In PMC9281569, “Two HCN4 Channels Play Functional Roles in the Zebrafish Heart” (Frontiers in Physiology, 2022):
“And” between values parts separate entries of the source, which are not always exact repeats. Equal entries are not always repeated. Structures can show the parent of a compound that is named as a salt.

Legend:
[1] = tested on: Isolated adult zebrafish heart; set-up: method as in Stoyek et al., 2022; settings: bath application; ref Stoyek et al., 2022; cited from earlier work
HsHCN4 = target: T1, HsHCN4 (Homo sapiens, UniProt Q9Y3Q4); experiment: Inhibition of HCN4 currents in Xenopus oocytes, two-electrode voltage clamp; type: cell-based; settings: holding −30 mV, hyperpolarized to −120 mV for 2 s, room temperature
T1 construct: host or cells: Xenopus laevis oocytes injected with cRNA (pGEMHE vector)
T1 sequence (Q9Y3Q4 1-1203): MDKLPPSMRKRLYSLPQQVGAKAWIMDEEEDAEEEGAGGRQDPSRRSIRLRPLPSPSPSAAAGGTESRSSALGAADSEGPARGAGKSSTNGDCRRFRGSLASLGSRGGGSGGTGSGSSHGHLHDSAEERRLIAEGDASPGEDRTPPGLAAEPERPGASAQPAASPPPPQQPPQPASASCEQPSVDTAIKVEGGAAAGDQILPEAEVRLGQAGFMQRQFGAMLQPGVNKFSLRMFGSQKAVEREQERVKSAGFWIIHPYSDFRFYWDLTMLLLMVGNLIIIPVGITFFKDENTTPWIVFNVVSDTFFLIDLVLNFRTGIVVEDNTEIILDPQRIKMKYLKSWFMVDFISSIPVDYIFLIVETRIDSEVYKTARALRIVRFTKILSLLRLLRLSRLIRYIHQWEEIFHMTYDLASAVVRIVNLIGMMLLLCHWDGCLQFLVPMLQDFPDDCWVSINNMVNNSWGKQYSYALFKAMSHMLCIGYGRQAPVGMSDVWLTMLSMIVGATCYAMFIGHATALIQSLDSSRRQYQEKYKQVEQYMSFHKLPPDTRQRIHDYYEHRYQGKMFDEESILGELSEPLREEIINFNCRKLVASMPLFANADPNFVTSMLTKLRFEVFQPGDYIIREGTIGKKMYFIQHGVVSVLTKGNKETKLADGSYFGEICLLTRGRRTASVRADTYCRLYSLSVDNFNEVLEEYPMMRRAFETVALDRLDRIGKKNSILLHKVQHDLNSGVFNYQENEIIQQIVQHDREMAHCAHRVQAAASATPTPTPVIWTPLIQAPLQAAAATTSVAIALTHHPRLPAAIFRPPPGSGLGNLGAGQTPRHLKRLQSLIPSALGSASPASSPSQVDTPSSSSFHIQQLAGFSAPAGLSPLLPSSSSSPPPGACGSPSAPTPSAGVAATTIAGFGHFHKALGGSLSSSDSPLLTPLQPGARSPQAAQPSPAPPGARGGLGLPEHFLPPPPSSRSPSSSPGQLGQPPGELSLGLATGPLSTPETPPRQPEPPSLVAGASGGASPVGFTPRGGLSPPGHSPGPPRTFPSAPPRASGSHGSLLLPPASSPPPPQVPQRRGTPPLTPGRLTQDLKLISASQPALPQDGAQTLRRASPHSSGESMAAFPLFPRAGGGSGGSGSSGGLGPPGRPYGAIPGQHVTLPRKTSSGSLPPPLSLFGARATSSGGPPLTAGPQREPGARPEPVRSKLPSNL

patients = tested on: patients; set-up: method as in Swedberg et al., 2010; settings: administration to patients; ref Swedberg et al., 2010; cited from earlier work

SMILES | Block of isolated adult zebrafish heart [1] | IC50 (HsHCN4) | IC50 (HsHCN4; listed as Cs^+) | Reduction of heart rate (patients)
[Cl-].[Cs+] [Cesium ion, Cesium chloride] | 73% | 68.8 ± 14 µM | 69 ± 14 µM | 
CCN(c1ccccc1)c1cc(=NC)n(C)c(C)n1.Cl [ZD7288] |  | 167 ± 56 µM |  | 
COc1cc2c(cc1OC)CC(=O)N(CCCN(C)C[C@H]1Cc3cc(OC)c(OC)cc31)CC2 [Ivabradine, ivabradine hydrochloride] | 86% | 38 µM and 37.6 µM |  | about 20%
